From ChEMBL document CHEMBL4118087, “Inhibitors of CD73 May Provide a Treatment for Cancer and Autoimmune Diseases” (ACS Med Chem Lett, 2017)
pIC50: −log10 of the molar value.

Each compound was assayed against 5'-nucleotidase (Homo sapiens, UniProt P21589, T376A) (assay: Inhibition of human flag-tagged CD73 Thr376Ala mutant (1 to 552 residues) assessed as reduction in conversion of AMP to adenosine incubated for 10 mins followed by AMP addition measured after 30 mins by RapidFire mass spectrometric analysis).
5'-nucleotidase, sequence (P21589 27-549 T376A limits assumed): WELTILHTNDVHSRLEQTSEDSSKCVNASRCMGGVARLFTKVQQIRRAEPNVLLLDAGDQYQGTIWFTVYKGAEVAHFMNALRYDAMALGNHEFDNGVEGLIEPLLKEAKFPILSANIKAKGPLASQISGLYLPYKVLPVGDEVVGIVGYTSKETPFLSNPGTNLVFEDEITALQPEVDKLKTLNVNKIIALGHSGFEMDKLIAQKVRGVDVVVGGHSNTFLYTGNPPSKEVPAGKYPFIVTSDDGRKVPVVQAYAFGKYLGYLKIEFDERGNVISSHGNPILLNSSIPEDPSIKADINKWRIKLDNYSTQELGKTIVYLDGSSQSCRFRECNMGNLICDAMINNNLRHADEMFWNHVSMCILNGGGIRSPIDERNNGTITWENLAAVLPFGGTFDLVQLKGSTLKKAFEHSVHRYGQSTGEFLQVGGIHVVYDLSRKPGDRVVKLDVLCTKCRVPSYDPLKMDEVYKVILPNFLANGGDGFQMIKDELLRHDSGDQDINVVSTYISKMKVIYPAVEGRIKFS

Going from `O=S1(=O)NC(Nc2cccc(O)c2)=Nc2c(O)cc(F)cc21` to `CN(C)C(=O)Cc1cccc(NC2=Nc3c(O)cc(Cl)cc3S(=O)(=O)N2)c1`, the pIC50 falls from 7.00 to 5.50 (1.50 log units).

Going from `Cc1ccc(NC2=Nc3c(O)cc(Cl)cc3S(=O)(=O)N2)cc1` to `O=S1(=O)NC(Nc2cccc3[nH]ccc23)=Nc2c(O)cc(Cl)cc21`, the pIC50 rises from 6.00 to no less than 6.50. The second is the more potent here.

Compared with `O=S1(=O)N=C(Nc2cc(F)c3[nH]ccc3c2)Nc2c(O)cc(Cl)c(Br)c21`, `O=S1(=O)NC(Nc2cccc3[nH]ncc23)=Nc2c1cc(Cl)c(F)c2O` is 0.60 log units higher in pIC50: 7.20 for the first, 7.80 for the second. The second is the more potent here.
